# Results published in patent US12146880B2, “Artificial transcription factors comprising a sliding domain and uses thereof” (priority 2013, dated 2024).
# Read-outs that look alike come from different tables or passages of the source. Primed or numbered codes have the meaning given here. Ends that are not written are not given here. TMR = fluorescent label conjugated to the Cys side chain; TMR″ = tetramethylrhodamine label
# What was measured:
# phage λ DNA = experiment: Sliding assay: total internal reflection fluorescence microscopy of single TMR-labeled peptides on flow-stretched phage λ DNA; assay type: biochemical, bacteriophage λ; conditions: for estimated 1D diffusion constants, D: peptides diffusing along λ-DNA, low salt buffer (FIG. 6); for 1D diffusion constant, D+SD / 1D diffusion constant, D+SEM: single molecule sliding trajectories; for 1D diffusion constant, D+SD: spread = standard deviation (FIGS. 7-12); for 1D diffusion constant, D+SEM: spread = standard mean error (FIGS. 7-12)
# Text: In vitro biophysical characterization of search process may be as follows. The search dynamics may be studied in vitro by directly observing fluorescently tagged compounds search DNA and bind their targets with a fluorescence microscope. In an exemplary method, linear fragments of DNA derived from bacteriophage λ (˜50 kb) are tethered on a glass coverslip and illuminated with TIRF microscopy. Flowing fluorescently tagged peptides over the coverslip stretches out the DNA hydrodynamically, and the peptides may be directly visualized as they search the DNA. Using computational algorithms, the peptides may be tracked and biophysical parameters such as the rate of diffusive translocation on DNA may be calculated from the estimated trajectories.
# […]. A flow cell was constructed on top of the cover slip such that when laminar flow is applied, the DNA stretches in the direction of flow and orients itself parallel to and in close proximity to the surface of the cover slip. Evanescent waves from a laser reflecting off the coverslip-buffer interface were used to illuminate a very small volume (˜1 pL) with a few hundred nanometers of the glass surface. The interaction of a single, TMR-labeled peptide with DNA was visualized by a CMOS camera (ORCA-Flash 4.0 from Hamamatsu) with 5 ms time-resolution. Despite the optical resolution limit imposed by diffraction, the centroid position of each signal in each frame is determined with sub-diffraction-limited resolution, typically 1-30 nm for bright fluorescent conjugates.
# Labeled peptides were infused at concentration of 100-200 pM at rates of 20-50 mL/hour. High flow rates were chosen to drive the longitudinal DNA fluctuation faster than the imaging frame rate. The assay buffer consisted of 10 mM PBS (2 mM NaCl, 0.1 mM β-mercaptoethanol, 0.05 mM EDTA, 5% (v/v) glycerol, 0.01% (v/v) Tween-20, pH 6.8).
# 30 bp dsDNA [1] = experiment: Fluorescence polarization (FP) DNA binding experiments; conditions: Table S5; pH 7.4
# λ-DNA [2] = experiment: Single molecule flow stretching experiments (1D diffusion of dye-labeled molecular sleds on λ-DNA); assay type: biochemical, bacteriophage λ; conditions: for D1 ± s.e.: Table S5, 2 mM NaCl buffer, pH 7.4, >50 trajectories
# Text: Single Molecule Flow Stretching Experiments: The experimental details have been described by Xiong et al. Briefly, flow cells were constructed by sandwiching a double-sided tape with pre-cut channels between a poly(ethylene glycol) (PEG) functionalized coverslip and a PDMS slab containing inlet and outlet holes. The biotin-λ-DNA was made by ligating a DNA oligo with a biotin attached to the 5′ overhang of λ-DNA, and then immobilized onto the flow channel surface by utilizing biotin and streptavidin chemistry. Samples were infused at 10-400 pM concentrations at rates of 25 ml/hr. The assay buffer consisted of 10 mM phosphate buffer, 2 mM NaCl, 50 μM EDTA, 20 mM ethanol, 5% (v/v) glycerol, 0.01% Tween-20 and 0.1% (v/v) $-mercaptoethanol, and the pH was adjusted to 7.4 by adding aliquots of concentrated NaOH solution. Individual dye-labeled molecules were imaged by using a home-built total internal reflection fluorescence microscope based on a Nikon Ti body with a Hamamatsu ORCA-Flash 4.0 VI camera. Applicants used customized single particle tracking software to process the raw image data^11.
# To study the motion of single molecules bound to DNA, Applicants applied a single-molecule flow-stretching assay that prepares long double-stranded DNA molecules as spatially extended templates for analysis of binding and transport activity of molecular sleds labeled with fluorescent dye molecules. […] In this assay (see a schematic in FIG. 19), functionalized DNA, e.g., biotin-k-DNA, was immobilized to a flow channel surface by one end and a laminar flow was applied to flow stretch the DNA. The flow rate was chosen so that the contribution of DNA fluctuations to the apparent motion of DNA-bound molecules along the DNA is negligible and the trajectories of single molecules were tracked by time-lapse fluorescence imaging. Here, Applicants applied the flow-stretching assay to study one-dimensional diffusion of modified peptides, peptide analogs and synthetic small molecules bound to DNA.
# λ-DNA [3] = conditions: cited from earlier work; for D1 ± s.e.: results from Xiong et al
# 30 bp dsDNA [4] = conditions: Table S1; Cy3B conjugated to Cys residues; results from Xiong et al; cited from earlier work
substance,measurement,setting,value
KRRR ({TMR″}-KRRR),"estimated 1D diffusion constants, D",phage λ DNA,20.3 ± 7.9 million bp²/s
Cy3B-pentaethylenehexamine [Cy3B-PEHA],Kd,30 bp dsDNA [1],1320 ± 248 nM
same,effect of increasing the salt concentration on the D1 value,"λ-DNA [2]; 2 mM NaCl vs 20 mM NaCl buffers, pH 7.4 (FIG. 14)",does not increase
same,D1 ± s.e.,λ-DNA [2],10.1 ± 0.5 M(bp^2/S)
same,D1 ± s.e.,λ-DNA [2]; listed as PHEA-Cy3B,10.1±0.5 M(bp^2/S)
"C(-TMR)-(K)13: TMR conjugated to Cys residue, SEQ ID NO: 36 (C(TMR)KKKKKKKKKKKKK)",D1 ± s.e.,λ-DNA [3]; Table S3,19.9 ± 1.3 M(bp^2/S)
GVQSLKRRRCF [pVlc-Cy38],D1 ± s.e.,"λ-DNA [3]; Table S1, Cy3B conjugated to Cys residues",35.1 ± 0.8 M(bp^2/S)
same,sliding by itself (one-dimensional diffusion constant),λ-DNA [3]; literature reference 11 (Xiong),35.2±0.8 M(bp2/s)
same,Kd,30 bp dsDNA [4],378 ± 20 nM
NVKRRTHNVLERQRRNELKRSFFALRDQ [cMyc helix],"1D diffusion constant, D+SD",phage λ DNA,12.8±5.0 ×10^6 bp^2s^−1
same,"1D diffusion constant, D+SEM",phage λ DNA,12.8±0.3 ×10^6 bp^2s^−1
"GRKKRRQRRRPPQ (also: TMR label, place not given here) [TAT]","estimated 1D diffusion constants, D",phage λ DNA,21 ± 7.5 million bp²/s
"TMR-(R)13: TMR conjugated to the N-terminal amine, SEQ ID NO: 39 ({TMR″}-RRRRRRRRRRRRR)",D1 ± s.e.,λ-DNA [3]; Table S3,7.7 ± 0.7 M(bp^2/S)
KRARNTEAARRSRAR-GSGSGS-pVIc [GCN4 helix-linker-pVIc],"1D diffusion constant, D+SD",phage λ DNA,9.6±4.3 ×10^6 bp^2s^−1
same,"1D diffusion constant, D+SEM",phage λ DNA,9.6±0.7 ×10^6 bp^2s^−1
KRARNTEAARRSRAR [GCN4 helix],"1D diffusion constant, D+SD",phage λ DNA,12.8±5.5 ×10^6 bp^2s^−1
same,"1D diffusion constant, D+SEM",phage λ DNA,12.8±0.6 ×10^6 bp^2s^−1
STSRHKKLMFKTE ({TMR″}-STSRHKKLMFKTE) [C-terminal sequence of p53],"estimated 1D diffusion constants, D",phage λ DNA,17.3 ± 5.3 million bp²/s
FHHHHH,"estimated 1D diffusion constants, D",phage λ DNA,14.9 ± 6.9 million bp²/s
"TMR-(K)13: TMR conjugated to the N-terminal amine, SEQ ID NO: 38 ({TMR″}-KKKKKKKKKKKKK)",D1 ± s.e.,λ-DNA [3]; Table S3,8.9 ± 0.5 M(bp^2/S)
"C(-TMR)-(R)13: TMR conjugated to Cys residue, SEQ ID NO: 37 (C(TMR)RRRRRRRRRRRRR)",D1 ± s.e.,λ-DNA [3]; Table S3,12.9 ± 0.5 M(bp^2/S)
KRARNTEAARRSRAR-GSGSGS-KRRR (KRARNTEAARRSRARGSGSGSKRRR) [GCN4 helix-linker-KRRR],"1D diffusion constant, D+SD",phage λ DNA,11.3±4.1 ×10^6 bp^2s^−1
same,"1D diffusion constant, D+SEM",phage λ DNA,11.3±0.6 ×10^6 bp^2s^−1
"(K)13: TMR-labeled lysine homopolymer of 13 residues, SEQ ID NO: 52 (KKKKKKKKKKKKK; also: TMR-labeled, place not given here)","estimated 1D diffusion constants, D",phage λ DNA,17.3 ± 5.3 million bp²/s
